# Measurements taken from US10800791B2, “Triazole ACC inhibitors and uses thereof” (Gilead Apollo, LLC, priority 2015, dated 2020).
# Where two headings read alike, the source gives them in different places.
# What was measured:
# human (hACC2) = human (hACC2) (Homo sapiens, UniProt O00763); assay: In vitro ACC inhibition assay (ADP-Glo), hACC2; assay type: biochemical; conditions: 5 nM ACC2, 20 μM ATP, 20 μM acetyl-CoA
# Procedure: The detailed procedure is as follows. […] 10 μL ADP glo reagent was added. […] 20 μL kinase detection reagent was added.
# [1] = system: Phytophthora capsici (Pc); assay: Growth inhibition assay of fungal pathogens, Pc; assay type: cell-based; conditions: 48 h
# Procedure: (§1) Compounds of the present invention were evaluated in a growth inhibition assay to determine the ability to control the growth of fungal pathogens, such as Botrtyis cinerea (Bc), Collectotrichum graminicola (Cg), Diplodia maydis (Dm), Fusarium moniliforme (Fm), Fusarium virguliforme (Fv), Phytophthora capsici (Pc), Rhizoctonia solani (Rs), and Septoria tritici (St).
# (§2) Compounds to be tested were dissolved in DMSO at 2.5 mg/ml to produce compound stock solutions (“stocks”). Stocks were diluted with DMSO by a five-fold dilution in a 96-well stock plate, and two sets of final concentrations of 50, 10, and 2 ppm or 2, 0.4, and 0.08 ppm were obtained in vitro. A set of positive controls was also prepared, with various concentrations of Soraphen (2, 0.4, and 0.08 ppm), Metalaxyl (1.1, 0.22, and 0.04 ppm), and Metconazole (2, 0.4, and 0.08 ppm or 0.2, 0.04, and 0.008 ppm) after the five-fold dilutions. Negative controls on each plate included 2% DMSO, water, and a blank (media+2% DMSO).
# (§3) Fungal spores were isolated from previously sub-cultured plates of Botrtyis cinerea (Bc), Collectotrichum graminicola (Cg), Diplodia maydis (Dm), Fusarium moniliforme (Fm), Fusarium virguliforme (Fv), Phytophthora capsici (Pc), and Septoria tritici (St). The isolated spores were diluted to individual concentrations with a 17% V8 liquid media. For Rhizoctonia solani (Rs) and Pythium irregulare, 1.5 mm mycelial plugs were used in place of spores and/4 Potato Dextrose Broth (PDB) was used for dilution. The spore concentrations and plug sizes were based on growth curves generated at 48 hours for each pathogen.
# (§4) In a second 96-well plate, the spores or mycelial plugs, media, diluted compound solutions, and controls were combined. Once the compound was added, a true final concentration of compound in each well was measured by an OD600 reading, which adjusted for any compound precipitation that might have occurred in the well. Plate readings were repeated at both 24 and 48 hours. The blank negative control was used as a background subtraction. Additional visual ratings were performed at both 24 and 48 hours for checking on precipitation and confirming efficacy. Visual and OD600 ratings of the compounds at 48 hours were compared to the 2% DMSO negative control, and the percent of pathogen growth inhibition was determined based on those values.
# Botrtyis cinerea (Bc) = assay: Growth inhibition assay of fungal pathogens, Bc; assay type: cell-based; conditions: 48 h, growth inhibition at 48 hours vs 2% DMSO control
# Procedure: as §1, §2, §3, §4
# C. albicans = assay: Antifungal Activity Assay (broth microtiter MIC), C. albicans; assay type: cell-based, Candida albicans; conditions: Candida albicans, ATCC90028, 48 h
# Method in brief: (§5)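 Endpoint: lowest concentration visibly inhibiting growth relative to control after 48 h. Inoculum of 2.5×10^3 CFU/mL final in RPMI 1640+MOPS, prepared from overnight 35° C agar cultures; test compounds diluted in water to 128 μg/mL before plating.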
# C. krusei = assay: Antifungal Activity Assay (broth microtiter MIC), C. krusei; assay type: cell-based, Candida krusei; conditions: Pichia kudriavzevii, ATCC6258, 48 h
# Method in brief: as §5
# [2] = system: Fusarium moniliforme (Fm); assay: Growth inhibition assay of fungal pathogens, Fm; assay type: cell-based; conditions: Fusarium verticillioides, 48 h, read-out: Concentration at 90% Inhibition Fm
# Procedure: as §1, §2, §3, §4
# Diplodia maydis (Dm) = assay: Growth inhibition assay of fungal pathogens, Dm; assay type: cell-based; conditions: Stenocarpella maydis, 48 h, growth inhibition at 48 hours vs 2% DMSO control
# Procedure: as §1, §2, §3, §4
# [3] = system: Collectotrichum graminicola (Cg); assay: Growth inhibition assay of fungal pathogens, Cg; assay type: cell-based; conditions: 48 h, growth inhibition at 48 hours vs 2% DMSO control
# Procedure: as §1, §2, §3, §4
# fungal (fACC2) = fungal (fACC2) (UniProt Q00955); conditions: read-out: fACC2 (in vitro ACC2 Inhibition Assay, IC50), ADP-Glo, 5 nM ACC2, 20 μM ATP, 20 μM acetyl-CoA
# Chain of fungal (fACC2) (Q00955 whole entry): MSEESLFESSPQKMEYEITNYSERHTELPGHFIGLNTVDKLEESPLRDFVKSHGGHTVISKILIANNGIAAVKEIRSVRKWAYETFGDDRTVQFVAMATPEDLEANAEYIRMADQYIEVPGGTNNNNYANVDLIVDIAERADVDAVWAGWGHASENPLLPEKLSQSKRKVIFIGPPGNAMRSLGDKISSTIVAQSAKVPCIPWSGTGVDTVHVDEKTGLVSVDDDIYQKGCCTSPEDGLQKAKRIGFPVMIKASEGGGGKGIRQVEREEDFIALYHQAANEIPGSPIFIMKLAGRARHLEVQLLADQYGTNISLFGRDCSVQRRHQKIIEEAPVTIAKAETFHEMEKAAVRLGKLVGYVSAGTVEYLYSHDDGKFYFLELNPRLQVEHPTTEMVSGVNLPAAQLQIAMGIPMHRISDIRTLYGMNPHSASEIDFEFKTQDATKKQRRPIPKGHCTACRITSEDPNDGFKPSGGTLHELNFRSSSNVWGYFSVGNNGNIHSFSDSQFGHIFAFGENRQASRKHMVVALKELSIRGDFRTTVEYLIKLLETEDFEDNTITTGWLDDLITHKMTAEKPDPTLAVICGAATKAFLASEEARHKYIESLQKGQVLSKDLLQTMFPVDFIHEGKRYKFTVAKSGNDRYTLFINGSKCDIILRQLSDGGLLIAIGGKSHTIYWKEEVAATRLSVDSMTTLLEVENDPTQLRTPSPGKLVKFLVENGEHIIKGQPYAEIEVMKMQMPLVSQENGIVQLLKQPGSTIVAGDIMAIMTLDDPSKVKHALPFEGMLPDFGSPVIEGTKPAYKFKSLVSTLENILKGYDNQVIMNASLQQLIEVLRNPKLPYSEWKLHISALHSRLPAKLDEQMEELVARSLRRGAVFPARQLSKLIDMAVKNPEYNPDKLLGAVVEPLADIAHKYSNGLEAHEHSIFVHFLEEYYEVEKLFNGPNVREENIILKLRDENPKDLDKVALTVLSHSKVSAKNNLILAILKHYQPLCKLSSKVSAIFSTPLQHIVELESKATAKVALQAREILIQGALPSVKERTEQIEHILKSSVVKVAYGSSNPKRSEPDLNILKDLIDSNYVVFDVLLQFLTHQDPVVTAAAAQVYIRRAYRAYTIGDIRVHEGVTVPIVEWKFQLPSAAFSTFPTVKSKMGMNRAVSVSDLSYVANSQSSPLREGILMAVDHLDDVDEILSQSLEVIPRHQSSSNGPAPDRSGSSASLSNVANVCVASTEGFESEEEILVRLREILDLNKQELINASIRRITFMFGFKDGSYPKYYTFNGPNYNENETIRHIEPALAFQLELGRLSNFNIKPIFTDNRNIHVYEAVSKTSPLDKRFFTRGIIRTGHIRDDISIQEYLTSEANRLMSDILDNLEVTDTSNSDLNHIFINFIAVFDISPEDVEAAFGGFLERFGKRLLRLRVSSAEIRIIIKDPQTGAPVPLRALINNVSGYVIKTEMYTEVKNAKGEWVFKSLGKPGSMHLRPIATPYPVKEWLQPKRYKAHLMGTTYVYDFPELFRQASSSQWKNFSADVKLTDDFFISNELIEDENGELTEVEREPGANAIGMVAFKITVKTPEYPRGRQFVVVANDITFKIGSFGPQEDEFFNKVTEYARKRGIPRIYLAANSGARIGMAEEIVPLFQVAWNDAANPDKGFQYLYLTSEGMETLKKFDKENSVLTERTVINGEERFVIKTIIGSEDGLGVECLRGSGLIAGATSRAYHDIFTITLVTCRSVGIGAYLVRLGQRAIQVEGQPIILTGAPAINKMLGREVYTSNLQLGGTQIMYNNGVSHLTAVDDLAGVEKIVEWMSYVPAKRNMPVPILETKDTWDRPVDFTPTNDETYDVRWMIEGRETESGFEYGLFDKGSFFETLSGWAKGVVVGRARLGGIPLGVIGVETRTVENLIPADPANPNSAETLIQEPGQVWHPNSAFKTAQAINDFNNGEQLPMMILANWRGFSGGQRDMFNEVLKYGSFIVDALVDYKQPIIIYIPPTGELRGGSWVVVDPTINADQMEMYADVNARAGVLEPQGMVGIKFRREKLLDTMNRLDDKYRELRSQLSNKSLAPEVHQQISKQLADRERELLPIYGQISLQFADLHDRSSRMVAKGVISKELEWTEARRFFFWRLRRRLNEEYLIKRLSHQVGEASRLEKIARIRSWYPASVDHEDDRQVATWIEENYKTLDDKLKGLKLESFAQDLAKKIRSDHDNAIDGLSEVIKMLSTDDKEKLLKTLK
# Rhizoctonia solani (Rs) = assay: Growth inhibition assay of fungal pathogens, Rs; assay type: cell-based; conditions: 48 h
# [4] = system: Fusarium virguliforme (Fv); assay: Growth inhibition assay of fungal pathogens, Fv; assay type: cell-based; conditions: 48 h
# Procedure: as §1, §2, §3, §4
# C. parapsilosis = assay: Antifungal Activity Assay (broth microtiter MIC), C. parapsilosis; assay type: cell-based, Candida parapsilosis; conditions: Lodderomyces parapsilosis, ATCC22019, 48 h
# Method in brief: as §5
# Septoria tritici (St) = assay: Growth inhibition assay of fungal pathogens, St; assay type: cell-based; conditions: Zymoseptoria tritici, 48 h, growth inhibition at 48 hours vs 2% DMSO control
# Procedure: as §1, §2, §3, §4
# [5] = growth inhibition at 48 hours vs 2% DMSO control, read-out: Concentration at 90% Inhibition Pc
# [6] = Botrtyis cinerea, read-out: Concentration at 90% Inhibition Bc
# [7] = Table 3a, ATCC 90028, 3 replicates, MIC recorded at 48 h, read-out: MIC, C. albicans ATCC 90028
# [8] = Table 3b (additional results), ATCC 90028, 3 replicates, MIC recorded at 48 h, read-out: MIC, C. albicans ATCC 90028
# [9] = Table 3a, ATCC 6258, 3 replicates, MIC recorded at 48 h, read-out: MIC, C. krusei ATCC 6258
# [10] = Table 3b (additional results), ATCC 6258, 3 replicates, MIC recorded at 48 h, read-out: MIC, C. krusei ATCC 6258
# [11] = Fusarium moniliforme, growth inhibition at 48 hours vs 2% DMSO control
# [12] = Diplodia maydis, read-out: Concentration at 90% Inhibition Dm
# [13] = Collectotrichum graminicola, read-out: Concentration at 90% Inhibition Cg
# [14] = mycelial plugs, growth inhibition at 48 hours vs 2% DMSO control, read-out: Concentration at 90% Inhibition Rs
# [15] = growth inhibition at 48 hours vs 2% DMSO control, read-out: Concentration at 90% Inhibition Fv
# [16] = Table 3a, ATCC 22019, 3 replicates, MIC recorded at 48 h, read-out: MIC, C. parapsilosis ATCC 22019
# [17] = Table 3b (additional results), ATCC 22019, 3 replicates, MIC recorded at 48 h, read-out: MIC, C. parapsilosis ATCC 22019
# [18] = Septoria tritici, read-out: Concentration at 90% Inhibition St
# Chain of human (hACC2) (O00763 whole entry): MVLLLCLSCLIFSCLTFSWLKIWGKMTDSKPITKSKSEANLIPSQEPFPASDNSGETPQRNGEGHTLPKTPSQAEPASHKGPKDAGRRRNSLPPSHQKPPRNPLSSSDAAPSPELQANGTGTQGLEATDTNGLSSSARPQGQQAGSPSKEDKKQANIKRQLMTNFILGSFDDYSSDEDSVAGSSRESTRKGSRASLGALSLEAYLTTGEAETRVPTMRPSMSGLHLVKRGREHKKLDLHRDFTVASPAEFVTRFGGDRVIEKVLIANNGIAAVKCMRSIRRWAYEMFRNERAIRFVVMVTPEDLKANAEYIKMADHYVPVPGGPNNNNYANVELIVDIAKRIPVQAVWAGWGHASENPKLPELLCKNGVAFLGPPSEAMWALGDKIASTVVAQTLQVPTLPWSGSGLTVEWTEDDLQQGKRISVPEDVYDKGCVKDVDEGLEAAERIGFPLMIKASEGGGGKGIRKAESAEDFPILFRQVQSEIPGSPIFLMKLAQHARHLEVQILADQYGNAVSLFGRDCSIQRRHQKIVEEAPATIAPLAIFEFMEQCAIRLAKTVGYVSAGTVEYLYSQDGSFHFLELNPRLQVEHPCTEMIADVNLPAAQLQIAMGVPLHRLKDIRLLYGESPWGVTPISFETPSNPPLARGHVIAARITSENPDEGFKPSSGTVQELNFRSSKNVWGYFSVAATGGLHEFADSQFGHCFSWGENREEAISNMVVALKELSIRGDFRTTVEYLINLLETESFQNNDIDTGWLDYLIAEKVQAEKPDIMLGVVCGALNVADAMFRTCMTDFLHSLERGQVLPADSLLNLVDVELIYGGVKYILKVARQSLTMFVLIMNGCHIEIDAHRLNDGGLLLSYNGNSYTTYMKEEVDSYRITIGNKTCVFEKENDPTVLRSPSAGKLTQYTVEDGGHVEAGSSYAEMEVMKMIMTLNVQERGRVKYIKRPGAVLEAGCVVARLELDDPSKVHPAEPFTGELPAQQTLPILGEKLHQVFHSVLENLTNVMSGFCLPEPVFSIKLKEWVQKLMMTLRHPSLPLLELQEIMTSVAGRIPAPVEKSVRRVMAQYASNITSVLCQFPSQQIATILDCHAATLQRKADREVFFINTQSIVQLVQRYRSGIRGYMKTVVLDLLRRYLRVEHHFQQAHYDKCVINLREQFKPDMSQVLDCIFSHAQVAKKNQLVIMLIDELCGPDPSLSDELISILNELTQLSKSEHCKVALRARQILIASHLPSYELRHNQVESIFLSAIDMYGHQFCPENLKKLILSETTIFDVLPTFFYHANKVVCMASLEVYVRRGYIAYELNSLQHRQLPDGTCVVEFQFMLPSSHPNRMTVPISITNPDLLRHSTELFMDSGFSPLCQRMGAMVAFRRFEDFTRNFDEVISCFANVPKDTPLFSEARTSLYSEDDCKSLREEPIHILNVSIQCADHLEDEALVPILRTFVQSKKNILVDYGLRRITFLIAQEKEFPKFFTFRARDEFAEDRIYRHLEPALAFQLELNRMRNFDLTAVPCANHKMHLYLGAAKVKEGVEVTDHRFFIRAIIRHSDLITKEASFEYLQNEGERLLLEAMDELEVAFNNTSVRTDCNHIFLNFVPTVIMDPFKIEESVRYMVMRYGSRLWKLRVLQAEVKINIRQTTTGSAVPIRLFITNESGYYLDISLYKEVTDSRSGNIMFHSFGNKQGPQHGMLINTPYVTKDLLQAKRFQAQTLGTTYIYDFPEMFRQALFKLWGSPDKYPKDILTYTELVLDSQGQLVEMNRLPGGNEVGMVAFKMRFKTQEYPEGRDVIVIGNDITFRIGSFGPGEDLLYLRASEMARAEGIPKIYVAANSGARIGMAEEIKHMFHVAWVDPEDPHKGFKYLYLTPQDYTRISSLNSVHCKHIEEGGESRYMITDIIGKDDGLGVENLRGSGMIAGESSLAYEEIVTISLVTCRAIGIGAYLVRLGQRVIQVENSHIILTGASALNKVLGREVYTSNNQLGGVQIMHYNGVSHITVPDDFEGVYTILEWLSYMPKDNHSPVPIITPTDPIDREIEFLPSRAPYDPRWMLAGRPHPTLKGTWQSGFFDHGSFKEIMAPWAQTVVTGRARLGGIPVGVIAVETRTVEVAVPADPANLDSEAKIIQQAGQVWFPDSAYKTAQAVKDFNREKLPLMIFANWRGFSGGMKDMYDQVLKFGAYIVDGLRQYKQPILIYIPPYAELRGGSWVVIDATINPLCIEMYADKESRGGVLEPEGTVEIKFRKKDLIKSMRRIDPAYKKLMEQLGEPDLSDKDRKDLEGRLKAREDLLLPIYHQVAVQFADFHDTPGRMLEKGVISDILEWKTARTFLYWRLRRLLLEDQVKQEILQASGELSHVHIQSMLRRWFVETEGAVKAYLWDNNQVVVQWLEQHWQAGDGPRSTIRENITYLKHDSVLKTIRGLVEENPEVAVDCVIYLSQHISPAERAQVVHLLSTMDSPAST
Structure (SMILES),IC50 (human (hACC2); Table 2a),"IC50 (human (hACC2); Table 2b, additional results)",IC50 (fungal (fACC2); Table 2a),"IC50 (fungal (fACC2); Table 2b, additional results)","IC90 [1, 5]",IC90 (Botrtyis cinerea (Bc); [6]),MIC (C. albicans; [7]),MIC (C. albicans; [8]),MIC (C. krusei; [9]),MIC (C. krusei; [10]),"IC90 [2, 11]",IC90 (Diplodia maydis (Dm); [12]),"IC90 [3, 13]",IC90 (Rhizoctonia solani (Rs); [14]),"IC90 [4, 15]",MIC (C. parapsilosis; [16]),MIC (C. parapsilosis; [17]),IC90 (Septoria tritici (St); [18]),further results
COc1ccc(F)cc1[C@H](Cn1c(=O)n([C@H](C)C(=O)NC(C)C)c(=O)c2c(C)c(-n3nccn3)sc21)OCCC#N [Compound I-138],1 to 5 nM,1 to 5 nM,1 to 5 nM,0.3 to 1 nM,–,–,–,–,–,–,–,–,–,–,–,–,–,–,"IC90 ([1]; read-out: Concentration at 90% Inhibition Pc, Phytophthora capsici, growth inhibition at 48 hours vs 2% DMSO control): 2 µg/mL; IC90 (Botrtyis cinerea (Bc); read-out: Concentration at 90% Inhibition Bc, Botrtyis cinerea): 0.4 µg/mL; MIC (C. albicans; read-out: MIC, C. albicans ATCC 90028, Table 3a, 3 replicates, MIC recorded at 48 h): 0.25 to 1 µg/mL; MIC (C. albicans; read-out: MIC, C. albicans ATCC 90028, Table 3b (additional results), 3 replicates, MIC recorded at 48 h): > 4.01 µg/mL; MIC (C. krusei; read-out: MIC, C. krusei ATCC 6258, Table 3a, 3 replicates, MIC recorded at 48 h): 0.25 to 1 µg/mL; MIC (C. krusei; read-out: MIC, C. krusei ATCC 6258, Table 3b (additional results), 3 replicates, MIC recorded at 48 h): 2.01 to 4 µg/mL; IC90 [2]: 0.08 µg/mL; IC90 (Diplodia maydis (Dm); read-out: Concentration at 90% Inhibition Dm, Diplodia maydis): 0.08 µg/mL; IC90 ([3]; read-out: Concentration at 90% Inhibition Cg, Collectotrichum graminicola): 0.08 µg/mL; IC90 (Rhizoctonia solani (Rs); read-out: Concentration at 90% Inhibition Rs, Rhizoctonia solani, mycelial plugs, growth inhibition at 48 hours vs 2% DMSO control): 0.08 µg/mL; IC90 ([4]; read-out: Concentration at 90% Inhibition Fv, Fusarium virguliforme, growth inhibition at 48 hours vs 2% DMSO control): 0.4 µg/mL; MIC (C. parapsilosis; read-out: MIC, C. parapsilosis ATCC 22019, Table 3a, 3 replicates, MIC recorded at 48 h): 0.25 to 1 µg/mL; MIC (C. parapsilosis; read-out: MIC, C. parapsilosis ATCC 22019, Table 3b (additional results), 3 replicates, MIC recorded at 48 h): 1.01 to 2 µg/mL; IC90 (Septoria tritici (St); read-out: Concentration at 90% Inhibition St, Septoria tritici): 2 µg/mL"
COc1ccc(F)cc1[C@H](Cn1c(=O)n([C@H](C)C(=O)N(C)C(C)C)c(=O)c2c(C)c(-n3nccn3)sc21)OCCC#N [Compound I-139],5 to 10 nM,1 to 5 nM,5 to 10 nM,1 to 5 nM,> 50 µg/mL,0.4 µg/mL,0.25 to 1 µg/mL,2.01 to 4 µg/mL,0.25 to 1 µg/mL,2.01 to 4 µg/mL,0.4 µg/mL,0.08 µg/mL,0.4 µg/mL,0.08 µg/mL,0.4 µg/mL,1.1 to 2 µg/mL,2.01 to 4 µg/mL,> 50 µg/mL,–
CCNC(=O)C(C)(C)n1c(=O)c2c(C)c(-n3nccn3)sc2n(C[C@H](OCCC#N)c2cc(F)ccc2OC)c1=O [Compound I-140],5 to 10 nM,5 to 10 nM,1 to 5 nM,1 to 5 nM,> 50 µg/mL,0.4 µg/mL,1.1 to 2 µg/mL,2.01 to 4 µg/mL,0.25 to 1 µg/mL,2.01 to 4 µg/mL,0.08 µg/mL,0.4 µg/mL,0.4 µg/mL,0.08 µg/mL,0.4 µg/mL,2.1 to 4 µg/mL,1.01 to 2 µg/mL,> 50 µg/mL,–
